Assay results published in article PMC10661964 (Current Drug Metabolism, 2023).
Where two headings read alike, the source gives them in different places.

Legend:
[1] = Quantification of nifurtimox and metabolites in rat plasma after a single high dose (200 mg/kg); type: in vivo, Wistar rats; conditions: for AUC(0-t) / AUC / Cmax / Tmax / half-life: Wistar, rat, plasma, po, 200 mg/kg; for ratio of rat:human AUC(0-24): rat 200 mg/kg oral vs human 120 mg oral
Experimental: Blood cells and plasma were then separated by centrifugation, and the plasma was stored at ≤-15°C until required. For analysis, plasma samples were thawed at room temperature and homogenized by vortex mixing. Plasma samples were pooled separately for male and female rats by combining 25 µL from each of the 4 animals for each timepoint. […] To each pooled plasma (100 µL), calibration, or control sample, 300 µL of an internal standard solution containing [^2H8]-nifurtimox (500 ng/mL) and [^2H3]-M-6 (2500 ng/mL) in acetonitrile + 0.5% formic acid in water (v/v) was added and mixed thoroughly. All samples were then centrifuged (20,000 g, 5 min) to precipitate the protein. The supernatant was analyzed using a 1290 Infinity LC system equipped with a diode array detector and an Orbitrap Q-Exactive Plus HRMS (Thermo Fisher Scientific, Bremen, Germany) with a heated electrospray ionization source. […] The mobile phase gradient was: 0 min, 0% B; 2.5 min, 0% B; 3 min, 20% B; 8 min, 45% B; 9 min, 90% B; 10.1 min, 90% B; 12 min, 0% B; 13 min, 0% B. The following HRMS parameters were used: mass range, 120-200 Da (0-2.5 min) and 230-600 Da (2.5-13 min) in full scan mode; resolution, 280,000; ion source voltage, 3500 V; capillary temperature, 300°C; source temperature, 60°C.
The calibration was based on the relative peak area as a function of concentration obtained by linear regression. […] Thus, all concentrations in μg/mL were back-calculated to nmol/mL. The PK parameters for each analyte were calculated using ToxKin software, as described above.

[2] = tested on: human CYP enzymes (all isoforms tested); assay: CYP inhibition, all isoforms tested (summary); type: in vitro ADME; conditions: reversible and irreversible
Excerpt: (§1) The inhibition of cytochrome P450 (CYP) isoforms and a range of cellular transporters (except multidrug and toxin extrusion [MATE] proteins), as well as the induction of CYP isoforms were investigated using previously described methods.

[3] = target: T1, CYP 2A6 (Homo sapiens, UniProt P11509); assay: CYP inhibition with probe substrate; type: in vitro ADME; conditions: coincubation, probe substrate coumarin; read-out: Co- IC50
T1 sequence (P11509 1-494): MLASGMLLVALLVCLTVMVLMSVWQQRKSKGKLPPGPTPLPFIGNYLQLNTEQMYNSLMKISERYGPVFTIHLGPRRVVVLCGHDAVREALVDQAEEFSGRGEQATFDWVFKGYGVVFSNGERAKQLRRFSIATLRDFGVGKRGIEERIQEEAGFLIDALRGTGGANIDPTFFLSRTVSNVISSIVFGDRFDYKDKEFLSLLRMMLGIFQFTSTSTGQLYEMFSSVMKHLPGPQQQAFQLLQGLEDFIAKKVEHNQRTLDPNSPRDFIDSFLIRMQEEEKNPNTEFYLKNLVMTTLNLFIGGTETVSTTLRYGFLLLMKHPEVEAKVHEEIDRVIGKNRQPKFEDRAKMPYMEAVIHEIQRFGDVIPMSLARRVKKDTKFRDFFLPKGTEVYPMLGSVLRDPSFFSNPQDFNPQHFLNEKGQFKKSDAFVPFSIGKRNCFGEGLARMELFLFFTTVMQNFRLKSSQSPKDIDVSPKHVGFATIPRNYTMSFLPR
Excerpt: as §1

[4] = target: T2, CYP 2B6 (Homo sapiens, UniProt P20813); assay: CYP inhibition with probe substrate; type: in vitro ADME; conditions: probe substrate bupropion
T2 sequence (P20813 1-491): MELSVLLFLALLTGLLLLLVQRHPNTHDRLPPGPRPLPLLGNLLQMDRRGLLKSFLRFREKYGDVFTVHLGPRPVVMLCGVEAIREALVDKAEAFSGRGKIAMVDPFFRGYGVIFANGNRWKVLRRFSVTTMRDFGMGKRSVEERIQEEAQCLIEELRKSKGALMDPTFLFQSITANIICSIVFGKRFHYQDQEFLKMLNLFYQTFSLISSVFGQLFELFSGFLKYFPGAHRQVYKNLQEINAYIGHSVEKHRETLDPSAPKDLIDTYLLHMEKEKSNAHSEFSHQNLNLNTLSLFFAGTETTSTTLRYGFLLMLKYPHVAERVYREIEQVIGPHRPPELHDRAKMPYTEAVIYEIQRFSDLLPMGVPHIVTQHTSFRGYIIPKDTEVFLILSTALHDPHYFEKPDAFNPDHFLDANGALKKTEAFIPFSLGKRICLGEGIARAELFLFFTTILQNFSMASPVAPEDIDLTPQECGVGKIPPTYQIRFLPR
Excerpt: as §1

[5] = target: T3, CYP 2C8 (Homo sapiens, UniProt P10632); assay: CYP inhibition with probe substrate; type: in vitro ADME; conditions: probe substrate amodiaquine
T3 sequence (P10632 1-490): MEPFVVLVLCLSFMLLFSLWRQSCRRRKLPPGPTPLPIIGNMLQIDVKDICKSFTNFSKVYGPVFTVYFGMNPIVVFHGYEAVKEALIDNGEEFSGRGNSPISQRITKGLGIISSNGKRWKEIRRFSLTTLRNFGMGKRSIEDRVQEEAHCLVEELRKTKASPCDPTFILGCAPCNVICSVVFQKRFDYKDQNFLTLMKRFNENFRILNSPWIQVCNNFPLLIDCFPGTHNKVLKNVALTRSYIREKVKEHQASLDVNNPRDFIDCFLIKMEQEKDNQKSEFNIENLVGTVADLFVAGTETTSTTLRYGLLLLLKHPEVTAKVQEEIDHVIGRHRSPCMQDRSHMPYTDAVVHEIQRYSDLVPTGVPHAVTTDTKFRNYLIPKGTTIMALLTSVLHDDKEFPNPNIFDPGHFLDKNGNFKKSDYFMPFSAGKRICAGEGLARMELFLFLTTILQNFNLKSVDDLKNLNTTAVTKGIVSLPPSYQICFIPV
Excerpt: as §1

[6] = target: CYP 2C9 (Homo sapiens, UniProt P11712); assay: CYP inhibition with probe substrate; type: in vitro ADME; conditions: probe substrate diclofenac
Sequence of CYP 2C9 (P11712 whole entry): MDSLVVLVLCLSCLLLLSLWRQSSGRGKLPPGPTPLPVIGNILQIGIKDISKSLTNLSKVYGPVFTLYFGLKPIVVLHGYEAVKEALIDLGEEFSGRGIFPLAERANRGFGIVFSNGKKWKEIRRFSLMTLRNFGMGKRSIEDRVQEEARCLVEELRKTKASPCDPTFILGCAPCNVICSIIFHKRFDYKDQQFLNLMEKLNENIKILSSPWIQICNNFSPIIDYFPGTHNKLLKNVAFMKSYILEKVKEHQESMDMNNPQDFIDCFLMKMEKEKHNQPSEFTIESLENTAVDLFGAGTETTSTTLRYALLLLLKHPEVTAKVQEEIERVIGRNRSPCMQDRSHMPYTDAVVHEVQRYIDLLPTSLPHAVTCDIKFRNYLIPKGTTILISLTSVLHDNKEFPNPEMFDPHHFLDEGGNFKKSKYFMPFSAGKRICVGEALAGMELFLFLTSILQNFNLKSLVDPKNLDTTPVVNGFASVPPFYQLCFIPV
Excerpt: as §1

[7] = tested on: CYP 2C19; assay: CYP induction (mRNA and CYP activity); type: in vitro ADME, human
Excerpt: as §1

[8] = female, read-out: AUC(0–24), female animals
[9] = female, read-out: AUC, female animals
[10] = female, read-out: Cmax, female animals
[11] = female, read-out: tmax, female animals
[12] = female, read-out: t½, female animals (converted)
[13] = male, read-out: AUC(0–24), male animals
[14] = male, read-out: AUC, male animals
[15] = male, read-out: Cmax, male animals
[16] = male, read-out: tmax, male animals
[17] = male, read-out: t½, male animals (converted)
[18] = 30-min preincubation, read-out: Pre- IC50 (+ NADPH)
[19] = coincubation, read-out: Co- IC50

| Compound | AUC(0-t) [1, 8] | AUC [1, 9] | Cmax [1, 10] | Tmax [1, 11] | half-life [1, 12] | AUC(0-t) [1, 13] | AUC [1, 14] | Cmax [1, 15] | Tmax [1, 16] | half-life [1, 17] | IC50 [2] | IC50 [3] | IC50 [4, 18] | IC50 [4, 19] | TDI (time-dependent inhibition) [4] | IC50 [5, 18] | IC50 [5, 19] | TDI (time-dependent inhibition) [5] | IC50 [6, 18] | IC50 [6, 19] | also measured |
| --- | --- | --- | --- | --- | --- | --- | --- | --- | --- | --- | --- | --- | --- | --- | --- | --- | --- | --- | --- | --- | --- |
| CC1CS(=O)(=O)CCN1/N=C/c1ccc([N+](=O)[O-])o1 (stereo not shown) [Nifurtimox, (E)-N-(3-methyl-1,1-dioxo-1,4-thiazinan-4-yl)-1-(5-nitrofuran-2-yl) methanimine, reference compound] | 117 µM·h | 121 µM·h | 18.3 µM | 1 h | 5 h | 138 µM·h | 184 µM·h | 10.1 µM | 2 h | 5 h | > 50 µM | > 50 µM | > 50 µM | > 50 µM | No | > 50 µM | > 50 µM | No | > 50 µM | > 50 µM | TDI (time-dependent inhibition) [6]: No |
| CC1CS(=O)(=O)CCN1n1cc(SCC(N)C(=O)O)ccc1=O (stereo not shown) [M-4] | 4.84 µM·h | 7.41 µM·h | 0.568 µM | 3 h | 18.6 h | 4.78 µM·h | 9.77 µM·h | 0.338 µM | 2 h | 18.3 h | > 20 µM | > 20 µM | > 20 µM | > 20 µM | No | > 20 µM | > 20 µM | No | > 20 µM | > 20 µM | ratio of rat:human AUC(0-24) [1]: 2.0-2.1 fold; TDI (time-dependent inhibition) [6]: No; concentration up to which no induction (mRNA and CYP activity) [7]: up to 80000 µg/L |
| CC1CS(=O)(=O)CCN1N (stereo not shown) [M-6] | 65.8 µM·h | 96.1 µM·h | 3.92 µM | 3 h | 13.5 h | 78.4 µM·h | 148 µM·h | 3.65 µM | 24 h | 10.6 h | > 100 µM | > 100 µM | > 100 µM | > 100 µM | No | > 100 µM | > 100 µM | No | > 100 µM | > 100 µM | ratio of rat:human AUC(0-24) [1]: 2.4-2.8 fold; TDI (time-dependent inhibition) [6]: No; concentration up to which no induction (mRNA and CYP activity) [7]: up to 90000 µg/L |
